Measurements: US6514965B1, “Substituted 1-benzazepines and derivatives thereof” (Antex Pharma Inc., priority 1999, dated 2003)

System: bacteria
Assay: MIC, broth dilution method (antibacterial activity)
Type: cell-based
Conditions: optical density of organisms with and without test compound, bacterial species not stated
Procedure: Antibacterial activity can be determined by several standard methods well known by those skilled in the art, including disc diffusions methods, broth dilution minimal inhibitory concentration (MIC) methods, etc., including the detailed method outlined below.
MIC, Broth Dilution Method
Cultures of bacteria are initially brought up from the freezer stocks onto chocolate agar plates by streaking a loop-full, then incubated for 18 hours at 35-37° C. in a 5% CO2 incubator.
Five to 10 colonies are picked from the chocolate agar plate for subculture to Brain-Heart Infusion (BHI) broth or Mueller Hinton broth or BHI containing 4% serum and incubated as described.
Evaluate the optical density of the organisms with and without the test compound. The optical density of the organisms in the presence of an active compound will be less than the optical density of the same organism untreated. The activity of the compounds is described as either negative or the lowest concentration inhibiting growth. The results are depicted in Table III, where +/− represents the least activity and ++++ represents the greatest activity.

| SMILES | Antibacterial Activity |
| --- | --- |
| COc1cc2c(cc1N1CCN(C(=O)OCc3ccccc3)CC1)CCC(C(=O)OC(C)(C)C)C(=O)N2Cc1cccc(F)c1 (racemic) [Example 31, 7-[(4-Benzyloxycarbonyl)piperazin-1-yl]-3(R,S)-tert-butoxycarbonyl-1-(3-fluorobenzyl)-8-methoxy-2,3,4,5-tetrahydro-1H-1-benzazepine-2-one] | ++++ |
| CCN1C(=O)CCCc2cc(N3CCN(C)CC3)c(OC)cc21 [Example 10] | +/− |
| CC(C)(C)[Si](C)(C)Oc1ccc2c(c1)NC(=O)CCC2 [Example 36, 8-(tert-butyldimethylsilyloxy)-2,3,4,5-tetrahydro-1H-1-benzazepine-2-one] | ++++ |

System: not given
Assay: not given
Conditions: not given

| SMILES | melting point |
| --- | --- |
| CCN1C(=O)C(C(=O)OC(C)(C)C)CCc2cc(Br)c(OC)cc21 (racemic) [Example 13, 7-Bromo-3(R,S)-tert-butoxycarbonyl-1-ethyl-8-methoxy-2,3,4,5-tetrahydro-1H-1-benzazepine-2-one] | 131 to 132 °C |
| COc1ccc2c(c1)NC(=O)CCC2 [Example 2, 8-Methoxy-2,3,4,5-tetrahydro-1H-1-benzazepine-2-one] | 105 to 106 °C |
| COc1cc2c(cc1Br)CCCC(=O)N2 [Example 24, 7-Bromo-8-methoxy-2,3,4,5-tetrahydro-1H-1-benzazepine-2-one] | 180 to 182 °C |
| CCN1C(=O)C(Br)(C(=O)OC)CCc2cc(Br)c(OC)cc21 (racemic) [Example 27, 3,7-Dibromo-1-ethyl-3(R,S)-methoxycarbonyl-8-methoxy-2,3,4,5-tetrahydro-1H-1-benzazepine-2-one] | 71 to 73 °C (dec.) |
| COc1cc2c(cc1Br)CCC(C(=O)OC(C)(C)C)C(=O)N2 (racemic) [Example 32, 7-Bromo-3(R,S)-tert-butoxycarbonyl-8-methoxy-2,3,4,5-tetrahydro-1H-1-benzazepine-2-one] | 207 to 208 °C |
| COc1ccc2c(c1)NC(=O)C(C(=O)OC(C)(C)C)CC2 (racemic) [Example 11, 3(R,S)-tert-Butoxycarbonyl-8-methoxy-2,3,4,5-tetrahydro-1H-1-benzazepine-2-one] | 145 to 147 °C |
| CCN1C(=O)C(C(=O)OC(C)(C)C)CCc2cc(N3CCNCC3)c(OC)cc21 (racemic) [Example 18, 3(R,S)-tert-Butoxycarbonyl-1-ethyl-8-methoxy-7-(piperazin-1-yl)-2,3,4,5-tetrahydro-1H-1-benzazepine-2-one] | 165 °C (dec.) |
| COc1ccc2c(c1)N(C(=O)OC(C)(C)C)C(=O)C(C(=O)OC(C)(C)C)CC2 (racemic) [Example 23, 1-tert-Butoxycarbonyl-3(R,S)-tert-butoxycarbonyl-8-methoxy-2,3,4,5-tetrahydro-1H-1-benzazepine-2-one] | 91 to 92 °C |
| CCN1C(=O)C(C(=O)O)CCc2cc(Br)c(OC)cc21 (racemic) [Example 17, 7-Bromo-3(R,S)-carboxyl-1-ethyl-8-methoxy-2,3,4,5tetrahydro-1H-1-benzazepine-2-one] | 188 to 189 °C (dec.) |
| CCN1C(=O)CCCc2cc(Br)c(OC)cc21 [Example 9, 7-Bromo-1-ethyl-8-methoxy-2,3,4,5-tetrahydro-1H-1-benzazepine-2-one] | 133 to 135 °C |
| CCN1C(=O)C(C(=O)O)CCc2ccc(OC)cc21 (racemic) [Example 5, 3(R,S)-Carboxyl-1-ethyl-8-methoxy-2,3,4,5-tetrahydro-1H-1-benzazepine-2-one] | 120 to 121 °C |
| CCN1C(=O)C(C(=O)OC(C)(C)C)C=Cc2ccc(OC)cc21 (racemic) [Example 16, 3(R,S)-tert-Butoxycarbonyl-1-ethyl-8-methoxy-2,3-dihydro-1H-1-benzazepine-2-one] | 173 to 174 °C |
| COc1cc2c(cc1Br)CCC(C(=O)OC(C)(C)C)C(=O)N2Cc1cccc(F)c1 (racemic) [Example 30, 7-Bromo-3(R,S)-tert-butoxycarbonyl-1-(3-fluorobenzyl)-8-methoxy-2,3,4,5-tetrahydro-1H-1-benzazepine-2-one] | 146 to 148 °C |
| CCN1C(=O)C(C(=O)OC(C)(C)C)CCc2ccc(OC)cc21 (racemic) [Example 12, 3(R,S)-tert-Butoxycarbonyl-1-ethyl-8-methoxy-2,3,4,5-tetrahydro-1H-1-benzazepine-2-one] | 132 to 133 °C |
| CCN1C(=O)C(C(=O)O)CCc2cc(N3CCNCC3)c(OC)cc21.Cl (racemic) [Example 15, 3(R,S)-Carboxyl-1-ethyl-8-methoxy-7-(piperazin-1-yl)-2,3,4,5-tetrahydro-1H-1-benzazepine-2-one Hydrochloride] | 173 to 176 °C (dec.) |
| O=C1CCCc2ccc(O)cc2N1 [Example 33, 8-Hydroxy-2,3,4,5-tetrahydro-1H-1-benzazepine-2-one] | 226 to 227 °C |
| CCOC(=O)C1CCc2ccc(OC)cc2NC1=O (racemic) [Example 3, 3(R,S)-Ethoxycarbonyl-8-methoxy-2,3,4,5-tetrahydro-1H-1-benzazepine-2-one] | 89 to 91 °C |
